Experimental findings from ChEMBL document CHEMBL4028827, “Discovery of indazole aldosterone synthase (CYP11B2) inhibitors as potential treatments for hypertension” (Bioorg Med Chem Lett, 2017) are described below.

Molecules are shown by their SMILES. Some results are limits rather than exact numbers.

Series [1] deals with Cytochrome P450 2C9 (Homo sapiens, UniProt P11712). The series can be described thus: Inhibition of hepatic CYP2C9 (unknown origin). It is filed as ADME.
Series [2] can be described thus: Plasma clearance in Sprague-Dawley rat at 1 mg/kg, iv or 2 mg/kg, po administered via gavage by LC-MS/MS analysis. It counts as ADME, organism-based.
Series [3] can be described thus: Half life in Sprague-Dawley rat at 1 mg/kg, iv or 2 mg/kg, po administered via gavage by LC-MS/MS analysis. It counts as ADME, organism-based. The settings on record: in vivo.
The nature of series [4]: Selectivity ratio of IC50 for hepatic CYP2D6 (unknown origin) to IC50 for human CYP11B2-CLE9 expressed in Chinese hamster V79 cells.
The target in series [5] is T1, Cytochrome P450 11B2, mitochondrial (Rattus norvegicus, UniProt P30099).
T1 sequence (P30099 whole entry): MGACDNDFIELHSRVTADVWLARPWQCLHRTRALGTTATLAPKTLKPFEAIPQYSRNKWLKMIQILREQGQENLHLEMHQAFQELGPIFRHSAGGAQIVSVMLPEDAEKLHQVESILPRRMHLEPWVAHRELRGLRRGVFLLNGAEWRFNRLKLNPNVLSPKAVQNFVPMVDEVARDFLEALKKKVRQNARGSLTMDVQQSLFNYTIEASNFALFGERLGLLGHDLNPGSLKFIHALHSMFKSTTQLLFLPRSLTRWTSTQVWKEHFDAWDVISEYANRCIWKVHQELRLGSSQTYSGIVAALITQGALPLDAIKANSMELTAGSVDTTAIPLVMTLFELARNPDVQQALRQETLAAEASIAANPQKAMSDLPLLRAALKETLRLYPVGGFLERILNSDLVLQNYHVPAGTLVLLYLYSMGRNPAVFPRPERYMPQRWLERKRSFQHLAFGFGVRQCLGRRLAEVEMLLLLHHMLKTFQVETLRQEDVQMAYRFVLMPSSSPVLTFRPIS
The series can be described thus: Inhibition of rat CYP11B2-1F4 expressed in Chinese hamster V79 cells using 11-deoxycorticosterone as substrate preincubated for 1 hr followed by substrate addition measured for 3 hrs by HTRF assay. It is filed as cell-based. (In general: TR-FRET usually uses a lanthanide donor and a delayed reading to cut background.)

For series [6], the target named is Cytochrome P450 2D6 (Homo sapiens, UniProt P10635). The series can be described thus: Inhibition of hepatic CYP2D6 (unknown origin). It counts as ADME.
Chain of Cytochrome P450 2D6 (P10635 whole entry): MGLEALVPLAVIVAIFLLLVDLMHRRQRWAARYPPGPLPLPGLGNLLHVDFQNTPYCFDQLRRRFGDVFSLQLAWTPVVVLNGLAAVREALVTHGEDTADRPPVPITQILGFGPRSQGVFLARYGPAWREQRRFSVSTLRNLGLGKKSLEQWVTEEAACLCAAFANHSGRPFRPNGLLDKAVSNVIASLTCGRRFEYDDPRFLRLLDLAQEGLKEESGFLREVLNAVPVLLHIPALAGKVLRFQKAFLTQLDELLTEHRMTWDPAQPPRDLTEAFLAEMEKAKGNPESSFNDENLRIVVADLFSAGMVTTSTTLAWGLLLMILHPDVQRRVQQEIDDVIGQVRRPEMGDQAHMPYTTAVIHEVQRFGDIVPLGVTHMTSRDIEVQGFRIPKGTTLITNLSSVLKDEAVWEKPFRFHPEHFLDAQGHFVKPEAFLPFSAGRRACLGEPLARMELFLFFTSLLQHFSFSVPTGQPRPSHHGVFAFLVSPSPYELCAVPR
In series [7] the target is Cytochrome P450 3A4 (Homo sapiens, UniProt P08684). The series can be described thus: Inhibition of hepatic CYP3A4 (unknown origin). It is filed as ADME.
Chain of Cytochrome P450 3A4 (P08684 whole entry): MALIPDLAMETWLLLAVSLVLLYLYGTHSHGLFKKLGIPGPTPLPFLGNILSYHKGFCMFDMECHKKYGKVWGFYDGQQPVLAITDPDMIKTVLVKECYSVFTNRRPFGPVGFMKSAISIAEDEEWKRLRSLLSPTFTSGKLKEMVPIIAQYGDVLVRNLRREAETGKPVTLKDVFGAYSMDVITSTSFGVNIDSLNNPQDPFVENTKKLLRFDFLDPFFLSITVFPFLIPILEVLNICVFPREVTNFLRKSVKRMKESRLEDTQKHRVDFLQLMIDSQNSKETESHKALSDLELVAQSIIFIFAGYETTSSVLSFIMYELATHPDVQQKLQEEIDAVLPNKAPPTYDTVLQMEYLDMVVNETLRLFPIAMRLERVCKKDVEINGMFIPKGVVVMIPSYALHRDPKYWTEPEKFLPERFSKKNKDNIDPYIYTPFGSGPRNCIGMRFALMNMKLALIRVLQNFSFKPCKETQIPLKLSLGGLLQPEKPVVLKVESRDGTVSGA
For series [8], the system named is Rattus norvegicus. Briefly: Dose normalized AUC in Sprague-Dawley rat at 2 mg/kg, po administered via gavage by LC-MS/MS analysis. It is filed as ADME, organism-based. The note with it: in vivo.
Series [9] can be described thus: Volume of distribution in Sprague-Dawley rat at 1 mg/kg, iv or 2 mg/kg, po administered via gavage by LC-MS/MS analysis. It is filed as ADME, organism-based. The note with it: in vivo.
Series [10] has as its target T2, Aromatase (Homo sapiens, UniProt P11511).
T2 sequence (P11511 whole entry): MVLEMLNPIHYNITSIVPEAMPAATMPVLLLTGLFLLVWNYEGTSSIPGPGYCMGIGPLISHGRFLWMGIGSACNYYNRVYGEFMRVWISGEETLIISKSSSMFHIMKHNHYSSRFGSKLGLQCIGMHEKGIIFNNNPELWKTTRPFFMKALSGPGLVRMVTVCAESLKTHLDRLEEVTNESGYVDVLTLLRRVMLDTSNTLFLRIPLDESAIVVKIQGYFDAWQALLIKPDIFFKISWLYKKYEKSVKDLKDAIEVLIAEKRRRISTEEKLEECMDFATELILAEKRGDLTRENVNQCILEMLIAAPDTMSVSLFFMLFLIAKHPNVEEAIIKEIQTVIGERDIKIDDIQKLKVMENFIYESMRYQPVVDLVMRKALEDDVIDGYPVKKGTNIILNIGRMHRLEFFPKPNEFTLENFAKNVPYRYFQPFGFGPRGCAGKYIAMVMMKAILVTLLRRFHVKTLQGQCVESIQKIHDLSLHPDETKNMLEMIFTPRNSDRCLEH
The series can be described thus: Inhibition of CYP19 (unknown origin) using MFC as substrate and NADPH as cofactor preincubated for 10 mins with cofactor followed by substrate/enzyme addition measured after 30 mins.

Chain of Cytochrome P450 2C9 (P11712 whole entry): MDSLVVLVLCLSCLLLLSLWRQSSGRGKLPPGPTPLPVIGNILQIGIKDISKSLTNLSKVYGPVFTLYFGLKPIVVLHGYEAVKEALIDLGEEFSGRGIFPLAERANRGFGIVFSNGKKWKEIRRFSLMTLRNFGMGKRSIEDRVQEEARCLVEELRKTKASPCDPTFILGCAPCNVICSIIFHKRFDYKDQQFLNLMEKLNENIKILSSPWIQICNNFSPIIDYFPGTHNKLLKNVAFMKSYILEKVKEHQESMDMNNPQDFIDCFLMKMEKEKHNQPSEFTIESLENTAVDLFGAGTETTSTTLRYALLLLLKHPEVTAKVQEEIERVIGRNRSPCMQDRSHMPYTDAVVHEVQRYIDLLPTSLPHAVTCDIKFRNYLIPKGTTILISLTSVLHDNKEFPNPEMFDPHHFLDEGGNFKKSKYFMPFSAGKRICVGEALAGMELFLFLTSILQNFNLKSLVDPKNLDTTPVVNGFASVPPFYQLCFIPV

As a reminder, the IC50 is the concentration that inhibits the measured activity by half. For orientation: half-life means how long it takes for the measured level to halve. Consider `CC(C)(O)c1cncc(-n2ncc3c(C(F)(F)F)cccc32)c1`, for which the IC50 in series [1] came to 9.1 µM; in series [5] it was 0.0022 µM; in [6], 2.8 µM; in series [7] it was 43 µM; in series [10] it was 4.6 µM. In [2], this molecule yielded a clearance of 14 mL/min/kg. Further, the half-life in [3] is 7.6 h. For the same molecule, in series [4], the “Ratio IC50” value is given as >1000. The same molecule showed an AUC/dose in series [8] of 0.85 µM·kg·h/mg. This molecule also gave a Vd in series [9] of 6.3 L/kg.
